From patent US11548892B1, “Transglutaminase 2 (TG2) inhibitors” (Sitari Pharma, Inc., priority 2018, dated 2023)
pIC50: −log10 of the molar value.

Molecular target: TG2 (Homo sapiens (Human), UniProt P21980)
Assay: Transglutaminase (TG) Inhibitor Assay
Format: biochemical
Conditions: fluorescence of dansyl cadaverine cross-linked into N,N-dimethylated casein, 8 point titration
Method: Using the fluorescent amine donor, dansyl cadaverine (DSC), and the multiple glutamine bearing amine acceptor N,N-dimethylated casein (NMC), TG activity was measured via the change in fluorescence of cross-linked DSC into NMC over time.

Sequence of TG2 (P21980 whole entry): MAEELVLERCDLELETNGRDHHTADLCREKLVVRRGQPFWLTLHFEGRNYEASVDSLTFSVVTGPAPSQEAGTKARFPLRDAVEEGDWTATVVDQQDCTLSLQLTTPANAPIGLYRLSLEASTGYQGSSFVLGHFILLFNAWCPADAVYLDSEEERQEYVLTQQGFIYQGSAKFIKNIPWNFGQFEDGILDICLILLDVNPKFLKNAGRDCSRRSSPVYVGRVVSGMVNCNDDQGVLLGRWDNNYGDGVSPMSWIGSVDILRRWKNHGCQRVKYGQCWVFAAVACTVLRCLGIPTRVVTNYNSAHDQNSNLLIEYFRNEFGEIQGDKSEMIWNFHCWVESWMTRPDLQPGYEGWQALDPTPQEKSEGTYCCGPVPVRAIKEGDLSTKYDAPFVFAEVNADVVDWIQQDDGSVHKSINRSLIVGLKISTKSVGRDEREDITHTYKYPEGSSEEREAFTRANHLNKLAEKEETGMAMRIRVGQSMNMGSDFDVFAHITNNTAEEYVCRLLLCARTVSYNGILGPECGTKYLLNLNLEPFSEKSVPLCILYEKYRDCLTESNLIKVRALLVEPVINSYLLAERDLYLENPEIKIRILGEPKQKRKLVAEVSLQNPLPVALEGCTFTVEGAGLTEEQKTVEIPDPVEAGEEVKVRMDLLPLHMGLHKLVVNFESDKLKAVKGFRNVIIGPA

| Compound | pIC50 | pIC50 (listed as 101) |
| --- | --- | --- |
| CC(C)Cc1cccc2c1nc(Cn1cccc(NC(=O)[C@H](CC/C=C/C(N)=O)NC(=O)OCc3ccccc3)c1=O)n2C(=O)OC(C)(C)C [Compound 3] | > 6.30 | – |
| [2H]C([2H])(C/C=C/C(=O)N(C)C)C(OC(=O)N(C)C)C(=O)Nc1cccn(Cc2nc3cc(F)ccc3[nH]2)c1=O (stereo not drawn) [Compound 54] | 5.30 to 6.30 | – |
| [2H]C([2H])(C/C=C/C(=O)N(C)C)C(OC(=O)N(C)C)C(=O)Nc1cccn(Cc2nc3cc(F)ccc3[nH]2)c1=O (stereo not drawn) [Compound 55] | 5.30 to 6.30 | – |
| CN(C)C(=O)/C=C/CC[C@H](OC(=O)N(C)C)C(=O)Nc1ccnn(Cc2nc3cc(F)cc(CC(C)(C)C)c3[nH]2)c1=O [Compound 85, [(E,1S)-6-(dimethylamino)-1-[[2-[[7-(2,2-dimethylpropyl)-5-fluoro-1H-benzimidazol-2-yl]methyl]-3-oxo-pyridazin-4-yl]carbamoyl]-6-oxo-hex-4-enyl]N,N-dimethylcarbamate] | > 6.30 | – |
| COC(=O)N[C@@H](CC/C=C/C(=O)N(C)C)C(=O)Nc1cncn(Cc2nc3c(CCC(F)(F)F)cc(F)cc3n2C(=O)OC(C)(C)C)c1=O [Compound 102, tert-butyl 2-[[5-[[(E,2S)-7-(dimethylamino)-2-(methoxycarbonylamino)-7-oxo-hept-5-enoyl]amino]-6-oxo-pyrimidin-1-yl]methyl]-6-fluoro-4-(3,3,3-trifluoropropyl)benzimidazole-1-carboxylate] | > 6.30 | – |
| COC(=O)N[C@@H](CC/C=C/C(=O)N(C)C)C(=O)Nc1cncn(Cc2nc3cc(F)cc(CCC(F)(F)F)c3[nH]2)c1=O [Compound 103, methyl N-[(E,1S)-6-(dimethylamino)-1-[[1-[[5-fluoro-7-(3,3,3-trifluoropropyl)-1H-benzimidazol-2-yl]methyl]-6-oxo-pyrimidin-5-yl]carbamoyl]-6-oxo-hex-4-enyl]carbamate] | > 6.30 | – |
| COC(=O)N(C)[C@@H](CC/C=C/C(=O)N(C)C)C(=O)Nc1cccn(Cc2nc3cccc(OCc4ccc(F)cc4F)c3[nH]2)c1=O [Compound 115, methyl (S,E)-methyl(1-((1-((7-((2,4-difluorobenzyl)oxy)-1H-benzo[d]imidazol-2-yl)methyl)-2-oxo-1,2-dihydropyridin-3-yl)amino)-7-(dimethylamino)-1,7-dioxohept-5-en-2-yl)carbamate] | > 6.30 | – |
| COC(=O)N[C@@H](CC/C=C/C(=O)N(C)C)C(=O)Nc1cccn(Cc2nc3c(CC(C(F)(F)F)C(F)(F)F)cccc3n2C(=O)OC(C)(C)C)c1=O [Compound 148, (S,E)-tert-butyl 2-((3-(7-(dimethylamino)-2-((methoxycarbonyl)amino)-7-oxohept-5-enamido)-2-oxopyridin-1(2H)-yl)methyl)-4-(3,3,3-trifluoro-2-(trifluoromethyl)propyl)-1H-benzo[d]imidazole-1-carboxylate] | 5.30 to 6.30 | – |
| CN(C)C(=O)/C=C/CC[C@H](NC(=O)OC(C)(C)C)C(=O)Nc1cccn(Cc2nc3cccc(C(O)C(C)(C)C)c3[nH]2)c1=O (stereo partly drawn) [Compound 160, tert-butyl ((2S,E)-7-(dimethylamino)-1-((1-((7-(1-hydroxy-2,2-dimethylpropyl)-1H-benzo[d]imidazol-2-yl)methyl)-2-oxo-1,2-dihydropyridin-3-yl)amino)-1,7-dioxohept-5-en-2-yl)carbamate] | > 6.30 | – |
| COC(=O)N[C@@H](CC/C=C/C(=O)N(C)C)C(=O)Nc1cncn(Cc2nc3cc(F)ccc3n2C)c1=O [Compound 174, methyl N-[(E,1S)-6-(dimethylamino)-1-[[1-[(5-fluoro-1-methyl-benzimidazol-2-yl)methyl]-6-oxo-pyrimidin-5-yl]carbamoyl]-6-oxo-hex-4-enyl]carbamate] | 4.00 to 5.30 | – |
| CN(C)C(=O)/C=C/CC[C@H](OC(=O)N(C)C)C(=O)Nc1cccn(Cc2nc3ccc(F)cc3n2Cc2ccccc2)c1=O [Compound 202, [(E,1S)-1-[[1-[(1-benzyl-6-fluoro-benzimidazol-2-yl)methyl]-2-oxo-3-pyridyl]carbamoyl]-6-(dimethylamino)-6-oxo-hex-4-enyl]N,N-dimethylcarbamate] | 5.30 to 6.30 | – |
| CN(C)C(=O)/C=C/CC[C@H](OC(=O)N(C)C)C(=O)Nc1cccn(Cc2nc3cc(F)ccc3n2Cc2ccc(F)cc2)c1=O [Compound 207] | 5.30 to 6.30 | – |
| CN(C)C(=O)/C=C/CC[C@H](OC(=O)N(C)C)C(=O)Nc1cccn(Cc2nc3ccc(F)cc3n2Cc2ccc(F)cc2)c1=O [Compound 208] | 5.30 to 6.30 | – |
| [2H]C([2H])(C/C=C/C(=O)N(C)C)C(OC(=O)N(C)C)C(=O)Nc1cccn(Cc2cc3cc(F)ccc3n2C(=O)OC(C)(C)C)c1=O (stereo not drawn) [Compound 224] | > 6.30 | – |
| [2H]C([2H])(C/C=C/C(=O)N(C)C)C(OC(=O)N(C)C)C(=O)Nc1cccn(Cc2cc3cccc(CC(C)C)c3n2C(=O)OC(C)(C)C)c1=O (stereo not drawn) [Compound 247] | 5.30 to 6.30 | – |
| [2H]C([2H])(C/C=C/C(=O)N(C)C)C(OC(=O)N(C)C)C(=O)Nc1cccn(Cc2cc3cc(F)cc(OCc4ccc(F)cc4F)c3n2C(=O)OC(C)(C)C)c1=O (stereo not drawn) [Compound 303] | 4.00 to 5.30 | – |
| CC(C)Cn1c(Cn2ccnc(NC(=O)[C@H](CC/C=C/C(=O)N(C)C)OC(=O)N(C)C)c2=O)cc2cc(F)ccc21 [Compound 344, [(E,1S)-6-(dimethylamino)-1-[[4-[(5-fluoro-1-isobutyl-indol-2-yl)methyl]-3-oxo-pyrazin-2-yl]carbamoyl]-6-oxo-hex-4-enyl]N,Ndimethylcarbamate] | > 6.30 | – |
| COCc1ccc(NC(=O)[C@H](CC/C=C/C(=O)N(C)C)NC(=O)OC)c(=O)n1Cc1nc2c(F)cnc(CC(C)C)c2[nH]1 [Compound 599] | > 6.30 | 5.30 to 6.30 |

Further lines, with some results ahead:

| pIC50 | Compound | pIC50 (listed as 101) |
| --- | --- | --- |
| 5.30 to 6.30 | [2H]C([2H])(C/C=C/C(=O)N(C)C)C(OC(=O)N(C)C)C(=O)Nc1cccn(Cc2cc3cc(F)cc(CC(C)C)c3n2C(=O)OC(C)(C)C)c1=O (stereo not drawn) [Compound 307] | – |
| > 6.30 | [2H]C([2H])(C/C=C/C(=O)N(C)C)C(OC(=O)N(C)C)C(=O)Nc1cccn(Cc2cc3cc(F)cc(CC(C)C)c3[nH]2)c1=O (stereo not drawn) [Compound 308] | – |
| > 6.30 | COC(=O)N[C@@H](CC/C=C/C(=O)N(C)C)C(=O)Nc1cccn(Cc2cc3ncnc(CC(C)C)c3[nH]2)c1=O [Compound 459, methyl N-[(E,1S)-6-(dimethylamino)-1-[[1-[(4-isobutyl-5H-pyrrolo[3,2-d]pyrimidin-6-yl)methyl]-2-oxo-3-pyridyl]carbamoyl]-6-oxo-hex-4-enyl]carbamate] | – |
| > 6.30 | COC(=O)N[C@@H](CC/C=C/C(=O)N(C)C)C(=O)Nc1cccn(Cc2cc3c(F)cnc(C=C(C)C)c3[nH]2)c1=O [Compound 501] | – |
| 5.30 to 6.30 | COC(=O)N[C@@H](CC/C=C/C(=O)N(C)C)C(=O)Nc1cccn(Cc2nc3c(N(C)C)nc(C)nc3[nH]2)c1=O [Compound 504] | – |
| > 6.30 | COC(=O)N[C@@H](CC/C=C/C(=O)N(C)C)C(=O)Nc1cccn(Cc2nc3c(CC(C)C)c(F)cnc3[nH]2)c1=O [Compound 525] | – |
| > 6.30 | COC(=O)N[C@@H](CC/C=C/C(=O)N(C)C)C(=O)Nc1cc(F)c(C)n(Cc2nc3c(F)cnc(CC(C)C)c3[nH]2)c1=O [Compound 583] | – |
| > 6.30 | COC(=O)N[C@@H](CC/C=C/C(=O)N(C)C)C(=O)Nc1cccn(Cc2cc3ncc(F)c(CC4CCC4)c3[nH]2)c1=O [Compound 585] | – |
